Experimental data as given in the OPERA property sets (Mansouri et al. 2018).

Q: Which logP does the source give for `O=C(NN=Cc1c(O)ccc2ccccc12)c1ccc([N+](=O)[O-])cc1` here?
A: 3.58

Q: Which logP does the source give for `O=C(NN=Cc1ccccc1O)c1ccccc1` here?
A: 3.01

Q: For `COc1ccc(C(=O)NN=Cc2ccccc2O)cc1`, which logP is on record?
A: 3.34

Q: With `Cc1ncc(CO)c(C=NNC(=O)c2ccccc2)c1O` as the compound, how does the logP read?
A: 2.23

Q: Which logP does the source give for `COc1ccc(C(=O)NN=Cc2c(O)ccc3ccccc23)cc1` here?
A: 4.06

Q: Which logP does the source give for `O=C(NN=Cc1c(O)ccc2ccccc12)c1ccco1` here?
A: 3.41

Q: For `O=C(NN=Cc1ccccc1O)c1cccs1`, which logP is on record?
A: 3.03

Q: With `Cc1ncc(CO)c(C=NNC(=O)c2ccc(N)cc2)c1O` as the compound, how does the logP read?
A: 1.19

Q: With `O=C(NN=Cc1c(O)ccc2ccccc12)c1cccc(F)c1` as the compound, how does the logP read?
A: 4.06

Q: With `CC(C)(C)c1ccc(C(=O)NN=Cc2ccccc2O)cc1` as the compound, how does the logP read?
A: 4.73

Q: For `Nc1ccc(C(=O)NN=Cc2c(O)ccc3ccccc23)cc1`, which logP is on record?
A: 3.04

Q: With `CC(=O)NN=Cc1c(CO)cnc(C)c1O` as the compound, how does the logP read?
A: 0.65

Q: Which logP does the source give for `Cc1ncc(CO)c(C=NNC(=O)c2ccc(C(C)(C)C)cc2)c1O` here?
A: 3.73

Q: For `Cc1ccc(C(=O)NN=Cc2c(CO)cnc(C)c2O)cc1`, which logP is on record?
A: 2.54

Q: With `O=C(NN=Cc1ccccc1O)c1cccc(Br)c1` as the compound, how does the logP read?
A: 3.91

Q: For `Nc1ccc(C(=O)NN=Cc2ccccc2O)cc1`, which logP is on record?
A: 2.16

Q: Which logP does the source give for `Cc1ncc(CO)c(C=NNC(=O)c2ccc(O)cc2)c1O` here?
A: 1.89

Q: For `Cc1ncc(CO)c(C=NNC(=O)c2cccs2)c1O`, which logP is on record?
A: 2.11

Q: For `Cc1ncc(CO)c(C=NNC(=O)c2ccco2)c1O`, which logP is on record?
A: 1.39

Q: Which logP does the source give for `Oc1ccccc1C=NNc1ccccn1` here?
A: 3.24

Q: Which logP does the source give for `Cc1ccc(C(=O)NN=Cc2ccccc2O)cc1` here?
A: 3.39

Q: Which logP does the source give for `COc1ccc(C(=O)NN=Cc2c(CO)cnc(C)c2O)cc1` here?
A: 2.47

Q: With `Cc1ncc(CO)c(C=NNC(=O)c2cccc(Cl)c2)c1O` as the compound, how does the logP read?
A: 2.96

Q: With `CC(=O)NN=Cc1c(O)ccc2ccccc12` as the compound, how does the logP read?
A: 2.91

Q: For `O=C(NN=Cc1ccccc1O)c1ccco1`, which logP is on record?
A: 2.67

Q: Which logP does the source give for `Cc1ncc(CO)c(C=NNC(=O)c2ccncc2)c1O` here?
A: 1.14

Q: For `O=C(NN=Cc1c(O)ccc2ccccc12)c1ccc(O)cc1`, which logP is on record?
A: 3.95

Q: Which logP does the source give for `O=C(NN=Cc1ccccc1O)c1ccncc1` here?
A: 2.16

Q: With `O=C(NN=Cc1ccccc1O)c1ccc([N+](=O)[O-])cc1` as the compound, how does the logP read?
A: 3.03

Q: With `Cc1ncc(CO)c(C=NNC(=O)c2cccc(Br)c2)c1O` as the compound, how does the logP read?
A: 3.07

Q: For `O=C(NN=Cc1ccccc1O)c1cccc(Cl)c1`, which logP is on record?
A: 3.83

Q: With `Cc1ncc(CO)c(C=NNC(=O)c2ccc([N+](=O)[O-])cc2)c1O` as the compound, how does the logP read?
A: 1.55

Q: Which logP does the source give for `CC(=O)NN=Cc1ccccc1O` here?
A: 1.71

Q: Which logP does the source give for `O=C(NN=Cc1ccccc1O)c1ccc(O)cc1` here?
A: 2.56

Q: For `Cc1ncc(CO)c(C=NNc2ccccn2)c1O`, which logP is on record?
A: 2.46

Q: For `O=C(NN=Cc1ccccc1O)c1cccc(F)c1`, which logP is on record?
A: 3.41

Q: For `Cc1ncc(CO)c(C=NNC(=O)c2cccc(F)c2)c1O`, which logP is on record?
A: 2.42
